Test results reported in ChEMBL document CHEMBL4507284, “Data for DCP probe BI-1230” (2021).

Tests used:
[1] = molecular target: Tyrosine-protein kinase TXK (Homo sapiens) (UniProt P42681); conditions: Compound concentration 1000.0 nM
[2] = molecular target: Casein kinase I isoform gamma-2 (Homo sapiens) (UniProt P78368); conditions: Compound concentration 1000.0 nM
[3] = system: Epidermal growth factor receptor (Homo sapiens), P00533 [G719C]; conditions: Compound concentration 1000.0 nM
[4] = molecular target: Serine/threonine-protein kinase ICK (Homo sapiens) (UniProt Q9UPZ9); conditions: Compound concentration 1000.0 nM
[5] = molecular target: Aurora kinase C (Homo sapiens) (UniProt Q9UQB9); conditions: Compound concentration 1000.0 nM
[6] = molecular target: Mitogen-activated protein kinase kinase kinase 7 (Homo sapiens) (UniProt O43318); conditions: Compound concentration 1000.0 nM
[7] = molecular target: Tyrosine-protein kinase Fes/Fps (Homo sapiens) (UniProt P07332); conditions: Compound concentration 1000.0 nM
[8] = molecular target: Protein kinase C delta type (Homo sapiens) (UniProt Q05655); conditions: Compound concentration 1000.0 nM
[9] = molecular target: Mitogen-activated protein kinase kinase kinase 11 (Homo sapiens) (UniProt Q16584); conditions: Compound concentration 1000.0 nM
[10] = molecular target: Tyrosine-protein kinase Srms (Homo sapiens) (UniProt Q9H3Y6); conditions: Compound concentration 1000.0 nM
[11] = molecular target: Non-receptor tyrosine-protein kinase TNK1 (Homo sapiens) (UniProt Q13470); conditions: Compound concentration 1000.0 nM
[12] = molecular target: Membrane-associated tyrosine- and threonine-specific cdc2-inhibitory kinase (Homo sapiens) (UniProt Q99640); conditions: Compound concentration 1000.0 nM
[13] = molecular target: Phosphatidylinositol 4,5-bisphosphate 3-kinase catalytic subunit alpha isoform (Homo sapiens) (UniProt P42336); conditions: Compound concentration 1000.0 nM
[14] = molecular target: Cyclin-dependent kinase 4 (Homo sapiens) (UniProt P11802); conditions: Compound concentration 1000.0 nM
[15] = system: Epidermal growth factor receptor (Homo sapiens), P00533 [UNDEFINED MUTATION]; conditions: Compound concentration 1000.0 nM
[16] = molecular target: Death-associated protein kinase 3 (Homo sapiens) (UniProt O43293); conditions: Compound concentration 1000.0 nM
[17] = system: Receptor-type tyrosine-protein kinase FLT3 (Homo sapiens), P36888 [UNDEFINED MUTATION]; conditions: Compound concentration 1000.0 nM
[18] = system: Tyrosine-protein kinase ABL1 (Homo sapiens), P00519 [H396P]; conditions: Compound concentration 1000.0 nM
[19] = molecular target: Ribosomal protein S6 kinase alpha-4 (Homo sapiens) (UniProt O75676); conditions: Compound concentration 1000.0 nM
[20] = system: Proto-oncogene tyrosine-protein kinase receptor Ret (Homo sapiens), P07949 [V804M]; conditions: Compound concentration 1000.0 nM
[21] = molecular target: Protein-tyrosine kinase 2-beta (Homo sapiens) (UniProt Q14289); conditions: Compound concentration 1000.0 nM
[22] = molecular target: 5'-AMP-activated protein kinase catalytic subunit alpha-1 (Homo sapiens) (UniProt Q13131); conditions: Compound concentration 1000.0 nM
[23] = molecular target: Serine/threonine-protein kinase TAO3 (Homo sapiens) (UniProt Q9H2K8); conditions: Compound concentration 1000.0 nM
[24] = molecular target: Serine/threonine-protein kinase/endoribonuclease IRE1 (Homo sapiens) (UniProt O75460); conditions: Compound concentration 1000.0 nM
[25] = molecular target: Serine/threonine-protein kinase PLK3 (Homo sapiens) (UniProt Q9H4B4); conditions: Compound concentration 1000.0 nM
[26] = system: Epidermal growth factor receptor (Homo sapiens), P00533 [L861Q]; conditions: Compound concentration 1000.0 nM
[27] = molecular target: Myosin-IIIb (Homo sapiens) (UniProt Q8WXR4); conditions: Compound concentration 1000.0 nM
[28] = system: Leucine-rich repeat serine/threonine-protein kinase 2 (Homo sapiens), Q5S007 [G2019S]; conditions: Compound concentration 1000.0 nM
[29] = molecular target: Mitotic checkpoint serine/threonine-protein kinase BUB1 (Homo sapiens) (UniProt O43683); conditions: Compound concentration 1000.0 nM
[30] = system: Phosphatidylinositol 4,5-bisphosphate 3-kinase catalytic subunit alpha isoform (Homo sapiens), P42336 [Q546K]; conditions: Compound concentration 1000.0 nM
[31] = molecular target: Serine/threonine-protein kinase 25 (Homo sapiens) (UniProt O00506); conditions: Compound concentration 1000.0 nM
[32] = molecular target: Casein kinase II subunit alpha' (Homo sapiens) (UniProt P19784); conditions: Compound concentration 1000.0 nM
[33] = molecular target: Beta-2 adrenergic receptor (Homo sapiens) (UniProt P07550); conditions: Compound concentration 10.0 uM
[34] = molecular target: Mitogen-activated protein kinase kinase kinase 10 (Homo sapiens) (UniProt Q02779); conditions: Compound concentration 1000.0 nM
[35] = molecular target: Proto-oncogene tyrosine-protein kinase receptor Ret (Homo sapiens) (UniProt P07949); conditions: Compound concentration 1000.0 nM
[36] = molecular target: Wee1-like protein kinase (Homo sapiens) (UniProt P30291); conditions: Compound concentration 1000.0 nM
[37] = system: Tyrosine-protein kinase ABL1 (Homo sapiens), P00519 [H396P]; conditions: Compound concentration 1000.0 nM; remark: listed apart in the source
[38] = molecular target: Tyrosine-protein kinase JAK3 (Homo sapiens) (UniProt P52333); conditions: Compound concentration 1000.0 nM
[39] = molecular target: Serine/threonine-protein kinase D2 (Homo sapiens) (UniProt Q9BZL6); conditions: Compound concentration 1000.0 nM
[40] = molecular target: Mitogen-activated protein kinase kinase kinase kinase 2 (Homo sapiens) (UniProt Q12851); conditions: Compound concentration 1000.0 nM
[41] = molecular target: Serine/threonine-protein kinase D3 (Homo sapiens) (UniProt O94806); conditions: Compound concentration 1000.0 nM
[42] = molecular target: Platelet-derived growth factor receptor beta (Homo sapiens) (UniProt P09619); conditions: Compound concentration 1000.0 nM
[43] = molecular target: Aurora kinase A (Homo sapiens) (UniProt O14965); conditions: Compound concentration 1000.0 nM
[44] = molecular target: STE20/SPS1-related proline-alanine-rich protein kinase (Homo sapiens) (UniProt Q9UEW8); conditions: Compound concentration 1000.0 nM
[45] = molecular target: Beta-3 adrenergic receptor (Homo sapiens, UniProt P13945); conditions: Compound concentration 10.0 uM
Sequence of Beta-3 adrenergic receptor (P13945 whole entry, looked up): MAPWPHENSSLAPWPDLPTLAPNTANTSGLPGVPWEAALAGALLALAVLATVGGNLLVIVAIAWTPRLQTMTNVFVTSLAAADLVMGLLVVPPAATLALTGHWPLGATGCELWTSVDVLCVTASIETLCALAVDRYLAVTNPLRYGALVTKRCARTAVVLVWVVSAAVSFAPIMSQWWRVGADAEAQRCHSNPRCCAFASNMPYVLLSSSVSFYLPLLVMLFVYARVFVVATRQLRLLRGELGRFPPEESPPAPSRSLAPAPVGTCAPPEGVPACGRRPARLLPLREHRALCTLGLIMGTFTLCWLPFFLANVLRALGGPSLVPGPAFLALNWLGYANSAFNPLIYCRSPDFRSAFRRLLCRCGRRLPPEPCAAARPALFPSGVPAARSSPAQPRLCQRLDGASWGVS

Sequence of Serine/threonine-protein kinase/endoribonuclease IRE1 (Homo sapiens) (O75460 19-977 limits assumed): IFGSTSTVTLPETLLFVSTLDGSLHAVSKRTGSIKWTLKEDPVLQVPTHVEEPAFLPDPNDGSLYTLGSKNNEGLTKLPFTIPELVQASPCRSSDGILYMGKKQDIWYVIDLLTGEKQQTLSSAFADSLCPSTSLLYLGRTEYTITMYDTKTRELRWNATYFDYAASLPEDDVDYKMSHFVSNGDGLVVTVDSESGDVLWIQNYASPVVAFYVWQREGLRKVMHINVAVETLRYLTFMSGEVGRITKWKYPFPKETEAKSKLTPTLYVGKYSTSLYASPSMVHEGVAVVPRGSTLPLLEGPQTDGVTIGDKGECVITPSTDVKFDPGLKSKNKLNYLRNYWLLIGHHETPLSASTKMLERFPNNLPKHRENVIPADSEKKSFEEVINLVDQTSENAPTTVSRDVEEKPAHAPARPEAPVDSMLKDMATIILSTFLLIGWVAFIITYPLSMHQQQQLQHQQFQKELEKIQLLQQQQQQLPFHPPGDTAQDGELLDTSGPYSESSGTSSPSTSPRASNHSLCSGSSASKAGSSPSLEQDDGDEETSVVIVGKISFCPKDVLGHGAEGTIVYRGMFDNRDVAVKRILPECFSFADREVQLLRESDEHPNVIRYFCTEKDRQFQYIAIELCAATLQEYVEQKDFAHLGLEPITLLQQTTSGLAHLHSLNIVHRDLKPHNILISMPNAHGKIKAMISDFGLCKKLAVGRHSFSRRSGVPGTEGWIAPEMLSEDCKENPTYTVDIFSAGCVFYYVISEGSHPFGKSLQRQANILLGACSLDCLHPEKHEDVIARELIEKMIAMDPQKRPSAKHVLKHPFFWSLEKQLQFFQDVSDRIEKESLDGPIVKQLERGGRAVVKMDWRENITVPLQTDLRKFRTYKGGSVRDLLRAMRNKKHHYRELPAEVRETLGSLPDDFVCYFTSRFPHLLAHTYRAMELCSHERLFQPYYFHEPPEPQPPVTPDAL
Sequence of Aurora kinase C (Homo sapiens) (Q9UQB9 whole entry): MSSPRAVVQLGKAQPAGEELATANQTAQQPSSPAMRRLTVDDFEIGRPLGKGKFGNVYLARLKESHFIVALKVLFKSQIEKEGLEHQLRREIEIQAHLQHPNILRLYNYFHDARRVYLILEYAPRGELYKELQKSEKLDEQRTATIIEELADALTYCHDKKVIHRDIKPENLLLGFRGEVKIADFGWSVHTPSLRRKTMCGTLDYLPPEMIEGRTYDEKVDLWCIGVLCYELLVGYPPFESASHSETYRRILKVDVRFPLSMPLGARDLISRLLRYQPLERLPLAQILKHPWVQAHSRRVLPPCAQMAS
Sequence of Phosphatidylinositol 4,5-bisphosphate 3-kinase catalytic subunit alpha isoform (Homo sapiens), P42336 [Q546K] (P42336 whole entry Q546K, canonical isoform): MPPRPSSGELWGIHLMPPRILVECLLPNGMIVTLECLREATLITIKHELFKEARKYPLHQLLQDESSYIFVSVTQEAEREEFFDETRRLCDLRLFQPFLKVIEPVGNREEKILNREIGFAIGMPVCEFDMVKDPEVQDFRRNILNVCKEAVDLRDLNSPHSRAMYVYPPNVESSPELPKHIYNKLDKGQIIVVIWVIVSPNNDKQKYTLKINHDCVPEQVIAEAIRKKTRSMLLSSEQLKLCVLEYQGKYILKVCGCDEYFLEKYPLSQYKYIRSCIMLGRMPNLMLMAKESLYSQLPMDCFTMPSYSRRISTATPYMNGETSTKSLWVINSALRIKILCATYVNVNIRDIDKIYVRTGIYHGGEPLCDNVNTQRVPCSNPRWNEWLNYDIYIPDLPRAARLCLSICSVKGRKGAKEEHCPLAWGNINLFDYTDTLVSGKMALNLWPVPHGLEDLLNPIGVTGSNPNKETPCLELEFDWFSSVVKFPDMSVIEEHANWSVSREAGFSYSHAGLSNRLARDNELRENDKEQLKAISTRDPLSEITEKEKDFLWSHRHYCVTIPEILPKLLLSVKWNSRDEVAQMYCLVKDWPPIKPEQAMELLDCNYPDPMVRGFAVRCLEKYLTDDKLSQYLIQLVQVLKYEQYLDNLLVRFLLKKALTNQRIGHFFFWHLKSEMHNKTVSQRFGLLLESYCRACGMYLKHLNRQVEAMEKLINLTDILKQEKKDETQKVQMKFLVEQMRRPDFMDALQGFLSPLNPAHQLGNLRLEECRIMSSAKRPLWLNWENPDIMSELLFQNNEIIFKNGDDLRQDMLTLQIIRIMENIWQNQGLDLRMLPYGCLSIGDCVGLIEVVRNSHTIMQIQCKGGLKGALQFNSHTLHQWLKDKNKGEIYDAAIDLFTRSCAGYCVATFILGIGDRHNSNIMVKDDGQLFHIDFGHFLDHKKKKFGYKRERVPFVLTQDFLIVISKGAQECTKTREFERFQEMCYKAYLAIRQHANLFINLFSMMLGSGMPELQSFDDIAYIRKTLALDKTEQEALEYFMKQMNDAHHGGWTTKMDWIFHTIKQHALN
Sequence of Receptor-type tyrosine-protein kinase FLT3 (Homo sapiens), P36888 [UNDEFINED MUTATION] (P36888 whole entry, looked up, stated change not applied): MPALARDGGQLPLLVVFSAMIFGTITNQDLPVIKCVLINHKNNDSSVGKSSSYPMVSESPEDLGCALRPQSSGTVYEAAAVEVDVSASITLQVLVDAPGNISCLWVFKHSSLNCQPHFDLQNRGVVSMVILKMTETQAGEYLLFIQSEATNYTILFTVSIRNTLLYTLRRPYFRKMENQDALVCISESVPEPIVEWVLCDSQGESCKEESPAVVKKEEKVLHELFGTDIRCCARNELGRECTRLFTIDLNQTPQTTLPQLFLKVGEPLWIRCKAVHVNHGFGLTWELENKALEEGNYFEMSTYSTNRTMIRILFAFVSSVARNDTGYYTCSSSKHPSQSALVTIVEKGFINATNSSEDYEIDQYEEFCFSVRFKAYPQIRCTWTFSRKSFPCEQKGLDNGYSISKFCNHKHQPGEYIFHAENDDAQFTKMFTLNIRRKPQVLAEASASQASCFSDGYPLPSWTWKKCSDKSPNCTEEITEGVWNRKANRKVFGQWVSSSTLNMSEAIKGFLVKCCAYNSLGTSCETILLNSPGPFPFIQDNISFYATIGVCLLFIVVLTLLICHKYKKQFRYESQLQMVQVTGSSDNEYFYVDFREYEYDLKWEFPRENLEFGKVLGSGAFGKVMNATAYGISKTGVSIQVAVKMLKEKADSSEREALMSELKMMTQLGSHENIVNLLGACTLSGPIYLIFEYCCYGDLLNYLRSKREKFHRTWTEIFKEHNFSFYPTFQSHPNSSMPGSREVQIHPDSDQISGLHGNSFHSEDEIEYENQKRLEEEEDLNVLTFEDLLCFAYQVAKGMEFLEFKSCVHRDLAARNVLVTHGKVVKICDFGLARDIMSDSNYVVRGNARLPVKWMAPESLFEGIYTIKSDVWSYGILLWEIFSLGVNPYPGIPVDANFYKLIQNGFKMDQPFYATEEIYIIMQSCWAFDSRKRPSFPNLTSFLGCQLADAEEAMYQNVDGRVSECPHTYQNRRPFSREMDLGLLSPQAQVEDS
Sequence of 5'-AMP-activated protein kinase catalytic subunit alpha-1 (Homo sapiens) (Q13131 whole entry, looked up): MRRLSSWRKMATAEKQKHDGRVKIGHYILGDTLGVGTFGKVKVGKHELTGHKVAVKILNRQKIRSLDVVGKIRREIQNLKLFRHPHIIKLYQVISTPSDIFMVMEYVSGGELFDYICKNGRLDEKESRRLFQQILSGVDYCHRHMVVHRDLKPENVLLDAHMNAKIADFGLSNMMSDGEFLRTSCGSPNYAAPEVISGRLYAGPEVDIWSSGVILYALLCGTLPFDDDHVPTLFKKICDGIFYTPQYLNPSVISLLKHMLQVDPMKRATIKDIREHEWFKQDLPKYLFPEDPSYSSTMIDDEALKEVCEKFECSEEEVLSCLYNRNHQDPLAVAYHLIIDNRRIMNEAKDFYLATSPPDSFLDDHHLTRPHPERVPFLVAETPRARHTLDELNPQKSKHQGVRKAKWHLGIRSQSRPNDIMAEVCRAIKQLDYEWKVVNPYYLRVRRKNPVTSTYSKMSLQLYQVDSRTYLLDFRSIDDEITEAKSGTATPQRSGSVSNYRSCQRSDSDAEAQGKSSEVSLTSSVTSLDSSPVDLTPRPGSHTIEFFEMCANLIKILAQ
Sequence of Mitogen-activated protein kinase kinase kinase 7 (Homo sapiens) (O43318 whole entry): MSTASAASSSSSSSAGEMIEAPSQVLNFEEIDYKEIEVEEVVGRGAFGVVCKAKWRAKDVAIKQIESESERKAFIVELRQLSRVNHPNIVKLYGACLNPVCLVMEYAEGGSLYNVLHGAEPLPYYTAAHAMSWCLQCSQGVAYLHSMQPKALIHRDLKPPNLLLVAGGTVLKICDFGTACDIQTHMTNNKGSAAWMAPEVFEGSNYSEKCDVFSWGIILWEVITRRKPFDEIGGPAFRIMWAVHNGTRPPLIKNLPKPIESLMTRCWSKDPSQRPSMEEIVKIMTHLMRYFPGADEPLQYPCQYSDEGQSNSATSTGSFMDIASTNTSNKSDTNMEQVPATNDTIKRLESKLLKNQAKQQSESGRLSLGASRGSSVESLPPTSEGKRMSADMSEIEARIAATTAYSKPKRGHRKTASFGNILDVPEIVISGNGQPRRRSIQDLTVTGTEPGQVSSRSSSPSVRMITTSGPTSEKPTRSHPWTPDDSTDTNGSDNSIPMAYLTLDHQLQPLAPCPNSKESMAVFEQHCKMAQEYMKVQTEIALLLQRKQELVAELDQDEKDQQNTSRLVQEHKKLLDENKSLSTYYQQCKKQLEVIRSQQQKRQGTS

## COc1ccc2c(O[C@@H]3C[C@H]4C(=O)N[C@]5(C(=O)O)CC5/C=C\CCCCC[C@H](NC(=O)OC5CCCC5)C(=O)N4C3)cc(-c3csc(NC(=O)C(C)C)n3)nc2c1C (stereo not given in full) [BI 1230]
[1]
  residual activity: 86%
[2]
  residual activity: 90%
[3]
  residual activity: 76%
[4]
  residual activity: 68%
[5]
  residual activity: 96%
[6]
  residual activity: 67%
[7]
  residual activity: 100%
[8]
  residual activity: 84%
[9]
  residual activity: 100%
[10]
  residual activity: 98%
[11]
  residual activity: 100%
[12]
  residual activity: 100%
[13]
  residual activity: 75%
[14]
  residual activity: 100%
[15]
  residual activity: 75%
[16]
  residual activity: 100%
[17]
  residual activity: 80%
[18]
  residual activity: 77%
[19]
  residual activity: 72%
[20]
  residual activity: 96%
[21]
  residual activity: 100%
[22]
  residual activity: 100%
[23]
  residual activity: 88%
[24]
  residual activity: 79%
[25]
  residual activity: 79%
[26]
  residual activity: 100%
[27]
  residual activity: 68%
[28]
  residual activity: 91%
[29]
  residual activity: 96%
[30]
  residual activity: 70%
[31]
  residual activity: 100%
[32]
  residual activity: 100%
[33]
  inhibition: 24.6%
[34]
  residual activity: 93%
[35]
  residual activity: 91%
[36]
  residual activity: 100%
[37]
  residual activity: 91%
[38]
  residual activity: 88%
[39]
  residual activity: 95%
[40]
  residual activity: 100%
[41]
  residual activity: 100%
[42]
  residual activity: 94%
[43]
  residual activity: 69%
[44]
  residual activity: 100%
[45]
  inhibition: 57.4%

## O=C(N[C@H]1CCCCC/C=C\C2C[C@@]2(C(=O)O)NC(=O)[C@@H]2C[C@@H](Oc3ccncc3)CN2C1=O)OC1CCCC1 (stereo not given in full) [BI 1675]
[1]
  residual activity: 87%
[2]
  residual activity: 63%
[3]
  residual activity: 59%
[4]
  residual activity: 85%
[5]
  residual activity: 92%
[6]
  residual activity: 77%
[7]
  residual activity: 100%
[8]
  residual activity: 100%
[9]
  residual activity: 97%
[10]
  residual activity: 100%
[11]
  residual activity: 100%
[12]
  residual activity: 97%
[13]
  residual activity: 98%
[14]
  residual activity: 100%
[15]
  residual activity: 49%
[16]
  residual activity: 100%
[17]
  residual activity: 88%
[18]
  residual activity: 81%
[19]
  residual activity: 85%
[20]
  residual activity: 100%
[21]
  residual activity: 100%
[22]
  residual activity: 100%
[23]
  residual activity: 100%
[24]
  residual activity: 80%
[25]
  residual activity: 100%
[26]
  residual activity: 100%
[27]
  residual activity: 38%
[28]
  residual activity: 86%
[29]
  residual activity: 100%
[30]
  residual activity: 98%
[31]
  residual activity: 97%
[32]
  residual activity: 100%
[33]
  inhibition: 12.8%
[34]
  residual activity: 100%
[35]
  residual activity: 94%
[36]
  residual activity: 100%
[37]
  residual activity: 71%
[38]
  residual activity: 100%
[39]
  residual activity: 100%
[40]
  residual activity: 100%
[41]
  residual activity: 82%
[42]
  residual activity: 87%
[43]
  residual activity: 92%
[44]
  residual activity: 100%
[45]
  inhibition: -9.47%
